Assay results reported in ChEMBL document CHEMBL2057159, “Methylation of imidazoline related compounds leads to loss of α₂-adrenoceptor affinity. Synthesis and biological evaluation of selective I₁ imidazoline receptor ligands” (Bioorg Med Chem, 2012).
The source made the active and inactive calls. No cut-off for these calls is given here.

How the values were obtained:
PC-12 [1] = test: Selectivity ratio of pKi for human alpha2B adrenoceptor to pKi for imidazoline I1 receptor in rat PC12 cell; type: cell-based
PC-12 [2] = test: Selectivity ratio of pKi for human alpha2A adrenoceptor to pKi for imidazoline I1 receptor in rat PC12 cell; type: cell-based
PC-12 [3] = test: Selectivity ratio of pKi for imidazoline I2 receptor in New Zealand rabbit renal cortex to pKi for imidazoline I1 receptor in rat PC12 cell; type: cell-based
[4] = Displacement of [3H]idazoxan from imidazoline I2 receptor in New Zealand rabbit renal cortex homogenate after 60 mins […]; set-up: species or system Oryctolagus cuniculus
PC-12 [5] = test: Selectivity ratio of pKi for human alpha2C adrenoceptor to pKi for imidazoline I1 receptor in rat PC12 cell; type: cell-based
[6] = target: T1, Alpha-2A adrenergic receptor (Homo sapiens, UniProt P08913); test: Displacement of [3H]RX821001 from human alpha2A adrenoceptor expressed in CHO cells after 60 mins […]; type: cell-based
T1 sequence (P08913 whole entry): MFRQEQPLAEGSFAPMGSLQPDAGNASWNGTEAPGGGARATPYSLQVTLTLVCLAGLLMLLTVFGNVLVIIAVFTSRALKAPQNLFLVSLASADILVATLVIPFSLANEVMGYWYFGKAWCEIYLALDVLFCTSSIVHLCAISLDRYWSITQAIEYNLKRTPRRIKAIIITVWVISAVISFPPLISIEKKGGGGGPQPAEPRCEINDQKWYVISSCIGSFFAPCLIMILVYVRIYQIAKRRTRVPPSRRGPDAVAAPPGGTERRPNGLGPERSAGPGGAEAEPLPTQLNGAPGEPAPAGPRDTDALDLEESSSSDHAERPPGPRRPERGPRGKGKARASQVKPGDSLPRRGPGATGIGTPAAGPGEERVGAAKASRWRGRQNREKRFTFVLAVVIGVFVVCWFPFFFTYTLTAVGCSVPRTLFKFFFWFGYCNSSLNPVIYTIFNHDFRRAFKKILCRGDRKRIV

Rattus norvegicus [7] = test: Hypotensive activity in spontaneous hypertensive rat assessed as decrease in mean blood pressure at 1 mg/kg, iv measured after 5 mins relative to control; type: functional; set-up: scale not given: the % may be the effect or the level left
Nischarin = Nischarin (Rattus norvegicus, UniProt Q4G017); test: Displacement of [125I]paraiodoclonidine from imidazoline I1 receptor in rat PC12 cells after 30 mins by gamma counter
[8] = target: T2, Alpha-2B adrenergic receptor (Homo sapiens, UniProt P18089); test: Displacement of [3H]RX821001 from human alpha2B adrenoceptor expressed in CHO cells after 60 mins by gamma counter; type: cell-based
T2 sequence (P18089 whole entry): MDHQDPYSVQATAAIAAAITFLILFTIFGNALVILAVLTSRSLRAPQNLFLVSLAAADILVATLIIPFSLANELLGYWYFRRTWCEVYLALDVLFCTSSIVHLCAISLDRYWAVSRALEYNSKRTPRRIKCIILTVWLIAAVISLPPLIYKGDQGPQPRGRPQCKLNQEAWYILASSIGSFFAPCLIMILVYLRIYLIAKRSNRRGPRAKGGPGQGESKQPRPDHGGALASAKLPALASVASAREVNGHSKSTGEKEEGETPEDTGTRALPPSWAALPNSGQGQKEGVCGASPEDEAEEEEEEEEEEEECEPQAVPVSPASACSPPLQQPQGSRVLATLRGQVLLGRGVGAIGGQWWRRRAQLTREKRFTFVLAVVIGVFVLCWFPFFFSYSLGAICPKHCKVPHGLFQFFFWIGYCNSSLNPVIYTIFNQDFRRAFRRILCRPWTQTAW

Rattus norvegicus [9] = test: Toxicity in spontaneous hypertensive rat assessed as vasoconstrictive activity at 1 mg/kg, iv; type: organism-based; set-up: dose 1 mg/kg, route intravenous; conditions: in vivo
[10] = target: T3, Alpha-2C adrenergic receptor (Homo sapiens, UniProt P18825); test: Displacement of [3H]RX821001 from human alpha2C adrenoceptor expressed in CHO cells after 60 mins […]; type: cell-based
T3 sequence (P18825 whole entry): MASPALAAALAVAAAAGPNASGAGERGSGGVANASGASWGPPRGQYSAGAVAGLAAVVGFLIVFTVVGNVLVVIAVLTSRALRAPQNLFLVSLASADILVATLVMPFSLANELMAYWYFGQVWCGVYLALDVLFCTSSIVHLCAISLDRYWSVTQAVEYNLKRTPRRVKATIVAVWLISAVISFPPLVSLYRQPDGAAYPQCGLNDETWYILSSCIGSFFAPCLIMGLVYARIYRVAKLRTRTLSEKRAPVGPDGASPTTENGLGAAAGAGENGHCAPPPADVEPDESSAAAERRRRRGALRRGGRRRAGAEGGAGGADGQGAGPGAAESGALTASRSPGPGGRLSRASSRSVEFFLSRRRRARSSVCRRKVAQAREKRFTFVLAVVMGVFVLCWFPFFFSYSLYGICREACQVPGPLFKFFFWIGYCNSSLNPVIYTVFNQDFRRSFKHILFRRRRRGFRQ

Rattus norvegicus [11] = test: Hypotensive activity in spontaneous hypertensive rat assessed as decrease in mean blood pressure at 10 mg/kg, iv measured continuously during 30 mins; type: functional, organism-based; set-up: dose 10 mg/kg
[12] = target: T4, Alpha-2C adrenergic receptor (Homo sapiens) (UniProt P18825); test: Selectivity ratio of compound to rilmenidine for human alpha2C adrenoceptor expressed in CHO cells after 60 mins […]; type: cell-based
T4 sequence (whole entry): T3 sequence (P18825 whole entry)

[13] = target: T5, Alpha-2A adrenergic receptor (Homo sapiens) (UniProt P08913); test: Selectivity ratio of compound to rilmenidine for human alpha2A adrenoceptor expressed in CHO cells after 60 mins […]; type: cell-based
T5 sequence (whole entry): T1 sequence (P08913 whole entry)

[14] = target: T6, Alpha-2B adrenergic receptor (Homo sapiens) (UniProt P18089); test: Selectivity ratio of compound to rilmenidine for human alpha2B adrenoceptor expressed in CHO cells after 60 mins […]; type: cell-based
T6 sequence (whole entry): T2 sequence (P18089 whole entry)

Nischarin, sequence (Q4G017 whole entry): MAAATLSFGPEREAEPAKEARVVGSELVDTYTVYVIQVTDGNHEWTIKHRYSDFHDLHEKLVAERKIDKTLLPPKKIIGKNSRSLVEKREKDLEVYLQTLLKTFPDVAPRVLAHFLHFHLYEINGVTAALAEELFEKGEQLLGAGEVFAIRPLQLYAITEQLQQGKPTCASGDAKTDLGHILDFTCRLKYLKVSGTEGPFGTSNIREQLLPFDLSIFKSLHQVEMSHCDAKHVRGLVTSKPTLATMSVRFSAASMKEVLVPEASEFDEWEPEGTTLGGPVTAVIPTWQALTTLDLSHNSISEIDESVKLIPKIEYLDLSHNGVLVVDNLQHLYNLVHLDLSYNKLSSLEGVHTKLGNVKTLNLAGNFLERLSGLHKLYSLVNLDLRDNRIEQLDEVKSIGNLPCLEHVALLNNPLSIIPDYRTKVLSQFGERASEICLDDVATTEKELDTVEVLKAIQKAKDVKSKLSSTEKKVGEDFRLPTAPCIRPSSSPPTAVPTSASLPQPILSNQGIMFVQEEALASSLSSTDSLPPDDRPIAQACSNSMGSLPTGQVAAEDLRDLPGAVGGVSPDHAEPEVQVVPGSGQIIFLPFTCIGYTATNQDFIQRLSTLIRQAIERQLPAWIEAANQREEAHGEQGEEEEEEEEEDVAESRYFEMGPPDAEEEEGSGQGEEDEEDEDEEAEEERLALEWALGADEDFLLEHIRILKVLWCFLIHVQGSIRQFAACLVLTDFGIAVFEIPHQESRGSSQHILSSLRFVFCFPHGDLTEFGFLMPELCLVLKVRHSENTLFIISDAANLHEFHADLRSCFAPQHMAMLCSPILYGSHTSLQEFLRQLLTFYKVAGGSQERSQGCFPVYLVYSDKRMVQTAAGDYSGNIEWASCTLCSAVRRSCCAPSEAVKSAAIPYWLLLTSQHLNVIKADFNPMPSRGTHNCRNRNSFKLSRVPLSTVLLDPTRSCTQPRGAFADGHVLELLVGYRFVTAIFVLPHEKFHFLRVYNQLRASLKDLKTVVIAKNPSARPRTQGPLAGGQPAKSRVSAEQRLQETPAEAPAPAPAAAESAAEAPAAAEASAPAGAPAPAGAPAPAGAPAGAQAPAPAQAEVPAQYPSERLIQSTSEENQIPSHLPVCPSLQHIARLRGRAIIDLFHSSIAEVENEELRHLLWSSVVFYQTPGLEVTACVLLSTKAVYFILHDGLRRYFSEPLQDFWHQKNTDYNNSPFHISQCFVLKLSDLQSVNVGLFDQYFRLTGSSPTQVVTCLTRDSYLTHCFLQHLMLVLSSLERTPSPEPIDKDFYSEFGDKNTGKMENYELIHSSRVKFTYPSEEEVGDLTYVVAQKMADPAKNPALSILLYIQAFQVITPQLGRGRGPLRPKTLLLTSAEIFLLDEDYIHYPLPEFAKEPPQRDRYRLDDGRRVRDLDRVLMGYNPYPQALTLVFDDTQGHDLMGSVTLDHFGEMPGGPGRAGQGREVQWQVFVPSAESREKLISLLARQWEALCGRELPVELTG

Compound	pKi [4]	Ki [6]	Ki (Nischarin)	Ki [8]	Ki [10]	Ratio [12]	Ratio [13]	Ratio [14]	Ratio pKi (PC-12 [1])	Ratio pKi (PC-12 [2])	Ratio pKi (PC-12 [3])	Ratio pKi (PC-12 [5])	Activity (Rattus norvegicus [7])	Activity (Rattus norvegicus [9])	Activity (Rattus norvegicus [11])
CC1CNC(Nc2c(Cl)cccc2Cl)=N1 (centres undefined)	< 5	1950 nM	0.933 nM	1320 nM	5750 nM	–	–	–	–	–	–	–	45%	Non-toxic	–
Clc1cccc(Cl)c1NC1=NCCN1 [CLONIDINE]	< 5	–	282 nM	–	–	–	–	–	–	–	–	–	–	–	–
Clc1ccccc1NC1=NCCC1	6.1	3020 nM	77.6 nM	933 nM	5010 nM	–	–	–	–	–	–	–	–	–	–

Continued, in another order:

pKi [4]	Ki [6]	Ki (Nischarin)	Ki [8]	Ki [10]	Ratio [12]	Ratio [13]	Ratio [14]	Compound	Ratio pKi (PC-12 [1])	Ratio pKi (PC-12 [2])	Ratio pKi (PC-12 [3])	Ratio pKi (PC-12 [5])	Activity (Rattus norvegicus [7])	Activity (Rattus norvegicus [9])	Activity (Rattus norvegicus [11])
< 5	–	–	–	–	–	–	–	CC1CCC(Nc2ccc(I)cc2Cl)=N1 (centres undefined)	19100	11700	> 45700	> 45700	–	–	–
< 5	> 10000 nM	132 nM	> 10000 nM	> 10000 nM	–	–	–	CC1CCC(Nc2ccccc2Cl)=N1 (centres undefined)	–	–	–	–	–	Non-toxic	inactive
–	2570 nM	0.219 nM	4170 nM	> 10000 nM	–	–	–	CC1CCC(=Nc2ccc(I)cc2Cl)N1 (centres undefined)	–	–	–	–	–	–	–
< 5	36.3 nM	–	42.7 nM	12.6 nM	–	–	–	C1COC(NC(C2CC2)C2CC2)=N1 [RILMENIDINE]	–	–	–	–	–	–	–
< 5	4900 nM	363 nM	2820 nM	> 10000 nM	> 794	135	66	CC1COC(NC(C2CC2)C2CC2)=N1 (centres undefined)	–	–	–	–	–	Non-toxic	inactive
